This is an account of results in ChEMBL document CHEMBL5678818, “Discovery of potent SOS1 inhibitors that block RAS activation via disruption of the RAS-SOS1 interaction” (Proc Natl Acad Sci U S A, 2019).

One experiment is filed under the species Homo sapiens. In words: Inhibition of N-terminal GST-tagged recombinant human SOS1 H905A mutant (564 to 1049 residues) expressed in Escherichia coli assessed as reduction in KRAS G12C mutant activation at 10 uM by HTRF analysis relative to control. On the technique in general: In TR-FRET formats the signal depends on donor and acceptor labels being close together.

Experiment [1] deals with Atypical kinase COQ8A, mitochondrial (Homo sapiens) (UniProt Q8NI60). In words: Inhibition of ADCK3 (unknown origin) assessed as residual activity at 100 nM by KINOMEscan analysis relative to control.
Experiment [2] concerns the target Casein kinase I isoform delta (Homo sapiens) (UniProt P48730). In words: Inhibition of CSNK1D (unknown origin) assessed as residual activity at 100 nM by KINOMEscan analysis relative to control.
In experiment [3] the target is Casein kinase I isoform epsilon (Homo sapiens) (UniProt P49674). In words: Inhibition of CSNK1E (unknown origin) assessed as residual activity at 100 nM by KINOMEscan analysis relative to control.
The target in experiment [4] is Eukaryotic translation initiation factor 2-alpha kinase 1 (Homo sapiens) (UniProt Q9BQI3). In words: Inhibition of EIF2AK1 (unknown origin) assessed as residual activity at 100 nM by KINOMEscan analysis relative to control.
The target of experiment [5] is Fibroblast growth factor receptor 4 (Homo sapiens) (UniProt P22455). In words: Inhibition of FGFR4 (unknown origin) assessed as residual activity at 100 nM by KINOMEscan analysis relative to control.
Experiment [6] relates to eIF-2-alpha kinase GCN2 (Homo sapiens), Q9P2K8 [S808G]. In words: Inhibition of GCN2 S808G mutant […] domain (unknown origin) assessed as residual activity at 100 nM by KINOMEscan analysis relative to control.
The target in experiment [7] is Tyrosine-protein kinase HCK (Homo sapiens) (UniProt P08631). In words: Inhibition of HCK (unknown origin) assessed as residual activity at 100 nM by KINOMEscan analysis relative to control.
The target of experiment [8] is T1, Tyrosine-protein kinase JAK3 (Homo sapiens) (UniProt P52333).
T1 sequence (whole entry): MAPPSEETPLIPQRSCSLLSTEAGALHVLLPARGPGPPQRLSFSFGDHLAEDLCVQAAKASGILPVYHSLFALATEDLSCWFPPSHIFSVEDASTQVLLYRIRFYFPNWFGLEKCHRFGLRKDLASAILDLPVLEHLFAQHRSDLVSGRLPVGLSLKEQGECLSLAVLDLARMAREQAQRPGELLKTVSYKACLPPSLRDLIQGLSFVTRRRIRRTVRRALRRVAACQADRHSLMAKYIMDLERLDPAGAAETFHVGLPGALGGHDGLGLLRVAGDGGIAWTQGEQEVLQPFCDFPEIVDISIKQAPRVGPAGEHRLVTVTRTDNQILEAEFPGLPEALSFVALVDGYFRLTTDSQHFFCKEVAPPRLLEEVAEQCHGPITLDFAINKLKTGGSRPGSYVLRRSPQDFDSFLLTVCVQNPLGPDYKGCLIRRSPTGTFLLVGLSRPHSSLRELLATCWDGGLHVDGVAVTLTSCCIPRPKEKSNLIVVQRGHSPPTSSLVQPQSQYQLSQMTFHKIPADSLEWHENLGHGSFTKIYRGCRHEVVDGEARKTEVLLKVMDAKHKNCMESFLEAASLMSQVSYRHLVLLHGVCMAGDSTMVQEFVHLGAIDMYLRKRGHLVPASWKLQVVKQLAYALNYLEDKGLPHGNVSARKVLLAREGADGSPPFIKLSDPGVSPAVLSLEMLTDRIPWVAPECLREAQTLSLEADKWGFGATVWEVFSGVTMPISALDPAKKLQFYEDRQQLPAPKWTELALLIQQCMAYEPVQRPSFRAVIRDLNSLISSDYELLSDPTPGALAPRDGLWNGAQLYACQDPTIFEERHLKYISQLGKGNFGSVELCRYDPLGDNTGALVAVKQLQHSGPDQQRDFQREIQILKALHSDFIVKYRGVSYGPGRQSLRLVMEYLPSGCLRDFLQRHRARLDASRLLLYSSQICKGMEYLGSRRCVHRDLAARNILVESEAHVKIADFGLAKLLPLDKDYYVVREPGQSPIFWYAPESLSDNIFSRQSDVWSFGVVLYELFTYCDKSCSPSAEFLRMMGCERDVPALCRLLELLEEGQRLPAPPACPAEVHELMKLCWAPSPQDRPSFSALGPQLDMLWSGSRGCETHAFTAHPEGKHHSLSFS
In words: Inhibition of JAK3 JH1 catalytic domain (unknown origin) assessed as residual activity at 100 nM by KINOMEscan analysis relative to control.

For experiment [9], the system named is Mast/stem cell growth factor receptor Kit (Homo sapiens), P10721 [L576P]. In words: Inhibition of KIT L576P mutant (unknown origin) assessed as residual activity at 100 nM by KINOMEscan analysis relative to control.
Experiment [10] has as its target Tyrosine-protein kinase Lck (Homo sapiens) (UniProt P06239). In words: Inhibition of LCK (unknown origin) assessed as residual activity at 100 nM by KINOMEscan analysis relative to control.
Experiment [11] deals with Leukocyte tyrosine kinase receptor (Homo sapiens) (UniProt P29376). In words: Inhibition of LTK (unknown origin) assessed as residual activity at 100 nM by KINOMEscan analysis relative to control.
Experiment [12] deals with Mitogen-activated protein kinase kinase kinase 1 (Homo sapiens) (UniProt Q13233). In words: Inhibition of MAP3K1 (unknown origin) assessed as residual activity at 100 nM by KINOMEscan analysis relative to control.
Sequence of Mitogen-activated protein kinase kinase kinase 1 (Homo sapiens) (Q13233 whole entry): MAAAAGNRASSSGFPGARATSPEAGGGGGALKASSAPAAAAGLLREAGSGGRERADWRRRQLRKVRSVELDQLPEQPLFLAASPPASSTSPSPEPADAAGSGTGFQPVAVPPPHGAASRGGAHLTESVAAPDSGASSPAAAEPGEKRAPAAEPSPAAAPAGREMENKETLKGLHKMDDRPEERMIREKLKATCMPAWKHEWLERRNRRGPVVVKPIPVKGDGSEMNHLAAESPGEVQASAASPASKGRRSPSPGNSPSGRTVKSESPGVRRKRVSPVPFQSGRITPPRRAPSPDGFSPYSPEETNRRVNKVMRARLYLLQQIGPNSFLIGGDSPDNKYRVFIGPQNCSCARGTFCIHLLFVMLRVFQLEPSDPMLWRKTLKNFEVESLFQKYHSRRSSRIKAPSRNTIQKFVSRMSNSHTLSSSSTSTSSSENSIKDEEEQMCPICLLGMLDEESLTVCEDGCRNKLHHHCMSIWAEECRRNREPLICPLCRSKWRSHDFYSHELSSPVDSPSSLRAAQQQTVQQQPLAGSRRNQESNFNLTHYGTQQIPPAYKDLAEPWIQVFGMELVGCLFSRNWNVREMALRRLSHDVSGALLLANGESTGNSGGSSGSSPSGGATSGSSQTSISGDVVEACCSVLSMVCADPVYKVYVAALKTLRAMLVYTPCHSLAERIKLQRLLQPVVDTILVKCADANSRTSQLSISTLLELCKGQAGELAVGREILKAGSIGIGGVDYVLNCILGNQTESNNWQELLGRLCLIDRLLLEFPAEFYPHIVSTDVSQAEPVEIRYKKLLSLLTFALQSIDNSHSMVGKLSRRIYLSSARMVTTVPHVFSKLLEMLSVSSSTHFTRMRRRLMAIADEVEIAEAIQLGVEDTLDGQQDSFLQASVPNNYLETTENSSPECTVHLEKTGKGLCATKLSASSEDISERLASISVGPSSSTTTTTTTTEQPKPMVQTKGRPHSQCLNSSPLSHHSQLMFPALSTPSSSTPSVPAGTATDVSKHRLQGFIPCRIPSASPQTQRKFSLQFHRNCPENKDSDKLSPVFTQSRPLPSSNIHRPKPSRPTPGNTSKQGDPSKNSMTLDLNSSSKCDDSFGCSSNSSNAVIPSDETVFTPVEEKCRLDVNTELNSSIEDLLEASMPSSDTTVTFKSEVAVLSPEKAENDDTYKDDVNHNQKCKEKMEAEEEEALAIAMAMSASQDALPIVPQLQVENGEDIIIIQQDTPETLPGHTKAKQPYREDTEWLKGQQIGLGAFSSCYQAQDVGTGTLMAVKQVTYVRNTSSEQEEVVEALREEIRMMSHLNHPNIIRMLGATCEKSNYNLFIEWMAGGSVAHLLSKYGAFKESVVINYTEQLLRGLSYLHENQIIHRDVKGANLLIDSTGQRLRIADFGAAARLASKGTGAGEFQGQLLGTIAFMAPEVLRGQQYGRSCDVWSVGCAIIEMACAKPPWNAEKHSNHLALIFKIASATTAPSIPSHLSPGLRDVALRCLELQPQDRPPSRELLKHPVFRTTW
In experiment [13] the target is Serine/threonine-protein kinase Nek7 (Homo sapiens) (UniProt Q8TDX7). In words: Inhibition of NEK7 (unknown origin) assessed as residual activity at 100 nM by KINOMEscan analysis relative to control.
In experiment [14] the test system is Phosphatidylinositol 4,5-bisphosphate 3-kinase catalytic subunit alpha isoform (Homo sapiens), P42336 [E545K]. In words: Inhibition of PIK3CA E545K mutant (unknown origin) assessed as residual activity at 100 nM by KINOMEscan analysis relative to control.
Sequence of Phosphatidylinositol 4,5-bisphosphate 3-kinase catalytic subunit alpha isoform (Homo sapiens), P42336 [E545K] (P42336 whole entry E545K, canonical isoform): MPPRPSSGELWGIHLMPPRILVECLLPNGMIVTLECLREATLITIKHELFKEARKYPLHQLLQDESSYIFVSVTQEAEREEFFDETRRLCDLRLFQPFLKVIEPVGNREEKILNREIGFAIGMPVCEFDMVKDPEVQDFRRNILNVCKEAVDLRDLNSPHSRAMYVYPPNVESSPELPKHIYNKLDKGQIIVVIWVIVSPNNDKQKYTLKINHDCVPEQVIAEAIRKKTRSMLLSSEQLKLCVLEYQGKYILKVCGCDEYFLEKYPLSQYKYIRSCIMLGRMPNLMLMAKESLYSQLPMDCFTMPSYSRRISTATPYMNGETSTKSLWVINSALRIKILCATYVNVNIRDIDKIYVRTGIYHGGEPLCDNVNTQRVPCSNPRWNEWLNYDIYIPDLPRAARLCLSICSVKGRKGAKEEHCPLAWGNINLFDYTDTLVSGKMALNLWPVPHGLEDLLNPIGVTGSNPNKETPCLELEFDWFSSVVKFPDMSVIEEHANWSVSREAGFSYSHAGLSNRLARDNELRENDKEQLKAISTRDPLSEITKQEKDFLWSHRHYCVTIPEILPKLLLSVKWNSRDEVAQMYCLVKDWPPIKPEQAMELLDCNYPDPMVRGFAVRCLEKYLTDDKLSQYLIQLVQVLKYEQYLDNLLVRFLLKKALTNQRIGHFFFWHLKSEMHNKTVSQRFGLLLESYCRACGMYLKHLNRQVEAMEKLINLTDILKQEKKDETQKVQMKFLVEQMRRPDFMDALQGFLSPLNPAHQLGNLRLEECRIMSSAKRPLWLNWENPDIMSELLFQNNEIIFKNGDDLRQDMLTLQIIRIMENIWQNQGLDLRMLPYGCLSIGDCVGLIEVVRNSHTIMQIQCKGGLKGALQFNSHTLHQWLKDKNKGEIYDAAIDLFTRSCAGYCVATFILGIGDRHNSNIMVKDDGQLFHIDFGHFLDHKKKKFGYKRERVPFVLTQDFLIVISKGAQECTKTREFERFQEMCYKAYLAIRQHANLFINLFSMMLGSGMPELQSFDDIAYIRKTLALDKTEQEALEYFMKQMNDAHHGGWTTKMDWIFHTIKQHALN
The target of experiment [15] is Serine/threonine-protein kinase N1 (Homo sapiens) (UniProt Q16512). In words: Inhibition of PKN1 (unknown origin) assessed as residual activity at 100 nM by KINOMEscan analysis relative to control.
Sequence of Serine/threonine-protein kinase N1 (Homo sapiens) (Q16512 2-942 limits assumed): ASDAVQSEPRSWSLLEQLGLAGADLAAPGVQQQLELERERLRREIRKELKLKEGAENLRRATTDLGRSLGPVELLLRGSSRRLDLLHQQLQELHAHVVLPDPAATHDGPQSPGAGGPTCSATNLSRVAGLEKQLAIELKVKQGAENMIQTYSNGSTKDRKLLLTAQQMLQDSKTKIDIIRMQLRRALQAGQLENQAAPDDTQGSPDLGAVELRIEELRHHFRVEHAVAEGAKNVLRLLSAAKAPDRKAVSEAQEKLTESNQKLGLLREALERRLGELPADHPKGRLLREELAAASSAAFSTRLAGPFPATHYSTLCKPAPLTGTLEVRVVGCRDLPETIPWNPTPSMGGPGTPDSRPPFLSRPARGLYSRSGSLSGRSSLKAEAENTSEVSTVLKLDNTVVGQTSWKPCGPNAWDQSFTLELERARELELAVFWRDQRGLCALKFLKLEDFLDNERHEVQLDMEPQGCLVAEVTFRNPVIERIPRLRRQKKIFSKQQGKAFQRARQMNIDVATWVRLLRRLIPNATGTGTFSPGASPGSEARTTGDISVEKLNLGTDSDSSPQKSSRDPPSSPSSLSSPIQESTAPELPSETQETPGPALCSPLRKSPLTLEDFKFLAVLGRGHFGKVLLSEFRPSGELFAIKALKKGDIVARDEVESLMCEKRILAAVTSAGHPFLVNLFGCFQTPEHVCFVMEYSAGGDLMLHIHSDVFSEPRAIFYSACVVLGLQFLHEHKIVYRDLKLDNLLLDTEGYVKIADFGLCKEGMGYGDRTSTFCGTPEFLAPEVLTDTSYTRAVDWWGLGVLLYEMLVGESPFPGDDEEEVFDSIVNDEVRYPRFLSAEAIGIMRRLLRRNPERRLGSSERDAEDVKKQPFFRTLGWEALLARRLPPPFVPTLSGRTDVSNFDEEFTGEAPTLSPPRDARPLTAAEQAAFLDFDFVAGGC
For experiment [16], the target named is Protein kinase C delta type (Homo sapiens) (UniProt Q05655). In words: Inhibition of PRKCD (unknown origin) assessed as residual activity at 100 nM by KINOMEscan analysis relative to control.
In experiment [17] the target is Serine/threonine-protein kinase SIK2 (Homo sapiens) (UniProt Q9H0K1). In words: Inhibition of SIK2 (unknown origin) assessed as residual activity at 100 nM by KINOMEscan analysis relative to control.
Sequence of Serine/threonine-protein kinase SIK2 (Homo sapiens) (Q9H0K1 whole entry, looked up): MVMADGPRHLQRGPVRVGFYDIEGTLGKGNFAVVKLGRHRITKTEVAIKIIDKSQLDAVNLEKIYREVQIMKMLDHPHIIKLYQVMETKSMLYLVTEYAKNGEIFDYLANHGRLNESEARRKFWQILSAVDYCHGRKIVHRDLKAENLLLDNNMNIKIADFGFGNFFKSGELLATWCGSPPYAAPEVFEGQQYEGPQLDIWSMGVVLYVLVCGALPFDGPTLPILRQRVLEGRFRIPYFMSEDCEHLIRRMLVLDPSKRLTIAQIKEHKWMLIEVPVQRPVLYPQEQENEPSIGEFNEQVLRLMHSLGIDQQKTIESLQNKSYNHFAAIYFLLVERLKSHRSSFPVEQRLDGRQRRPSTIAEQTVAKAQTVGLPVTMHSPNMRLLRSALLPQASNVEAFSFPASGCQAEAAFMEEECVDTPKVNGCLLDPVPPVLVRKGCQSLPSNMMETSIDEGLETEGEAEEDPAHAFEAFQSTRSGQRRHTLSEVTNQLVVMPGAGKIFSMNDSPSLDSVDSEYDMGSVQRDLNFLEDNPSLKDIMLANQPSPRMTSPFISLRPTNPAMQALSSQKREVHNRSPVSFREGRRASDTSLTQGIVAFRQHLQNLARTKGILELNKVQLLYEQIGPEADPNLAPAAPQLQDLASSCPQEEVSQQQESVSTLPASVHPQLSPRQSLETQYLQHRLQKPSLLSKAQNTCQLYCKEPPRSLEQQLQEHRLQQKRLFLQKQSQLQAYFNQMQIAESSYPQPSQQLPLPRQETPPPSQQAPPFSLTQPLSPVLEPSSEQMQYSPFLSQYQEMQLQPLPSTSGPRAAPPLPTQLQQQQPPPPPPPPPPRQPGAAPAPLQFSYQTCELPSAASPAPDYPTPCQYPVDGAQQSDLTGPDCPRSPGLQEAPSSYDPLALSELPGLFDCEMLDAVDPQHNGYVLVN
Experiment [18] concerns the target Tyrosine-protein kinase receptor Tie-1 (Homo sapiens) (UniProt P35590). In words: Inhibition of TIE1 (unknown origin) assessed as residual activity at 100 nM by KINOMEscan analysis relative to control.
Experiment [19] concerns the target NT-3 growth factor receptor (Homo sapiens) (UniProt Q16288). In words: Inhibition of TRKC (unknown origin) assessed as residual activity at 100 nM by KINOMEscan analysis relative to control.

Sequence of Casein kinase I isoform delta (Homo sapiens) (P48730 whole entry, looked up, canonical isoform): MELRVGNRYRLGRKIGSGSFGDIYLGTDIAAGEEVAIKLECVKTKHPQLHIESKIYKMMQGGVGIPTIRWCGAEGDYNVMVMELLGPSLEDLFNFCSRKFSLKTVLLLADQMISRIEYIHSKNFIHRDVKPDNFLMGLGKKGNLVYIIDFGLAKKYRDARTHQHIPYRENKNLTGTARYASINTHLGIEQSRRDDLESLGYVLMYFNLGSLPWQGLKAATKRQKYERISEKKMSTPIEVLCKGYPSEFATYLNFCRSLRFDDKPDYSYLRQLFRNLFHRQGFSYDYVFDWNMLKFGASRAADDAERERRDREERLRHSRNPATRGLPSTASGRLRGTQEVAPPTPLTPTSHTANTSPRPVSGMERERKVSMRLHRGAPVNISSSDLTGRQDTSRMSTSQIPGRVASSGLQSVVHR

For `COc1cc2ncnc(N[C@H](C)c3cccc4ccccc34)c2cc1OC`, the inhibition (in general, the change of the read-out against control, counted positive when it falls) in the experiment listed under Homo sapiens was found to be 52%. For the same molecule, the Activity in [1] turned out to be 64%; in experiment [2] it was 97%; in experiment [3], 97%; in [4], 67%; in experiment [5], 76%; in experiment [6] it was 100%. Also, the Activity was determined as 88% in experiment [7]; 84% in experiment [8]; 85% in [9]; 100% in experiment [10]; 97% in experiment [11]; 100% in experiment [12]. For the same molecule, the Activity in experiment [13] came out at 100%; in experiment [14] it was 75%; in [15] it was 92%; in experiment [16] it was 100%; in experiment [17], 91%; in experiment [18], 85%. In addition, in experiment [19], the Activity came out at 89%.
